The record followed here is US7939546B2, “Quinoline derivatives for modulating DNA methylation” (SuperGen, Inc., priority 2007, dated 2011).

The target of the assay is DNMT1 (Homo sapiens, UniProt P26358). Briefly: Selective depletion of DNMT1 by Western blot in treated HCT116 cells. It counts as cell-based. More on the design: Protein extracts (equivalent to 100 μg) were isolated from HCT116 cells; endogenous in cells; host or cells: HCT116. Conditions: for % DNMT1 protein level remaining at 5 µM: HCT-116, 5 μM; for % DNMT1 protein level remaining at 10 µM: HCT-116, 10 μM. The source says:
Biol. 2005, 11, 4727-41.]. For DNMT1, commercially available antibodies from Santa Cruz or New England Biolabs were used.

Structures can show the parent of a compound that is named as a salt.

Chain of DNMT1 (P26358 whole entry): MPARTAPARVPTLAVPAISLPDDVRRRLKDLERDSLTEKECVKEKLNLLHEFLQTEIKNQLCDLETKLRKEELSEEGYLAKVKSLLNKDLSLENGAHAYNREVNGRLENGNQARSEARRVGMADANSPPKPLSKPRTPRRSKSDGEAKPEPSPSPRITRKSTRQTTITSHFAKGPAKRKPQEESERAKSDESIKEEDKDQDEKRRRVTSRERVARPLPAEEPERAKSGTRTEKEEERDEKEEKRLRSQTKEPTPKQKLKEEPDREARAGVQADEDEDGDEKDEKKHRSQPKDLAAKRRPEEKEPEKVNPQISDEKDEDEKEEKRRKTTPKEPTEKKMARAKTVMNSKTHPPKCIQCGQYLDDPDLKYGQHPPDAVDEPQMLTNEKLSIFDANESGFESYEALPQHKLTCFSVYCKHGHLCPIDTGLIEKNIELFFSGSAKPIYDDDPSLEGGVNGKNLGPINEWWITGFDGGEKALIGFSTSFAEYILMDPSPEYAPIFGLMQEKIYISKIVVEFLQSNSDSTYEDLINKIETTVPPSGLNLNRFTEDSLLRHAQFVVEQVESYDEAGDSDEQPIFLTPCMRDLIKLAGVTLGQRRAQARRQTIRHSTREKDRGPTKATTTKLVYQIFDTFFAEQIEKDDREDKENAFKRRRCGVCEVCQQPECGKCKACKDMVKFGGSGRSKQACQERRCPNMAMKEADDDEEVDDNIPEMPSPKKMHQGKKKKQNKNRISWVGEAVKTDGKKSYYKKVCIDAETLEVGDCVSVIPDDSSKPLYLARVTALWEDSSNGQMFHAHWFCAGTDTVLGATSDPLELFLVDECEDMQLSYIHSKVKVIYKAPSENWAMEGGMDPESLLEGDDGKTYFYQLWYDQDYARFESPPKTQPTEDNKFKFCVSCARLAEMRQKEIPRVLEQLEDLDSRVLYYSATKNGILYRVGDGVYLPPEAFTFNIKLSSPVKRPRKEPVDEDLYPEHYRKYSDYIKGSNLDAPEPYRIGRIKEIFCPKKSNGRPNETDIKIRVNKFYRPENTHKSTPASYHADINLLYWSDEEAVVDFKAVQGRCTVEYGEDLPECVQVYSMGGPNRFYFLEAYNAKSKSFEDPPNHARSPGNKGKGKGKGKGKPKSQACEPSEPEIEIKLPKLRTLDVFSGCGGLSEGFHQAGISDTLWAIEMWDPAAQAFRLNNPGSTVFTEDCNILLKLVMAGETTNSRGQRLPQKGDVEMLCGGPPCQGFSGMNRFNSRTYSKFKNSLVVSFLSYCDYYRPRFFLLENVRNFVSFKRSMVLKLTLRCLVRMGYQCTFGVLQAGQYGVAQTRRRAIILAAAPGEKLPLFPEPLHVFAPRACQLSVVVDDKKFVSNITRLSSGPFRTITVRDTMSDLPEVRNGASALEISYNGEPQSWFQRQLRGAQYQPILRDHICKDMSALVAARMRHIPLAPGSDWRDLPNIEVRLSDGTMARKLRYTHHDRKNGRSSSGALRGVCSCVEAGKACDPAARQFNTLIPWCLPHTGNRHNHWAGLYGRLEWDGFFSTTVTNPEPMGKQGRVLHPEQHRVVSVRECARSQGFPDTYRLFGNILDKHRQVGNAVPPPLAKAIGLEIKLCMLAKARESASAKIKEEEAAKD

For `Cc1cc(Nc2cccc(C(=O)Nc3ccc(Nc4ccnc5ccc(N(C)C)cc45)cc3)c2)nc(N)n1` [Cpd. EE, 4-[4-({3-[(2-amino-6-methyl-4-pyrimidinyl)amino]benzoyl}amino)anilino]-6-(dimethylamino)quinolinium chloride], the % DNMT1 protein level remaining at 5 µM is 30% and the % DNMT1 protein level remaining at 10 µM came out at 10%.
Turning to `Cl.Cl.O=C(Nc1ccc(Nc2ccncc2)cc1)c1ccc(Nc2ccnc3ccccc23)cc1` [Cpd. EEE2, n-[4-(pyridin-4-ylamino)phenyl]-4-(quinolin-4-ylamino)benzamide dihydrochloride], the “% DNMT1 Level” value runs as follows: (5 μM) 3%; (10 μM) 0%.
Regarding `Cc1cc(Nc2cccc(C(=O)Nc3ccc(Nc4ccnc5ccccc45)cc3)c2)nc(N)n1` [Cpd. FF1, 3-[(2-amino-6-methyl-4-pyrimidinyl)amino]-N-[4-(4-quinolinylamino)phenyl]benzamide dihydrochloride], the % DNMT1 protein level remaining at 5 µM came to 15% and the % DNMT1 protein level remaining at 10 µM stood at 5%.
As to `Nc1cc(Nc2cccc(C(=O)Nc3ccc(Nc4ccnc5ccccc45)cc3)c2)nc(N)n1` [Cpd. FF2, 3-[(2,6-Diamino-4-pyrimidinyl)amino]-N-[4-(4-quinolinylamino)-phenyl]benzamide dihydrochloride], the % DNMT1 protein level remaining at 5 µM is 85% and the % DNMT1 protein level remaining at 10 µM was found to be 83%.
As for `C[n+]1ccc(Nc2ccc(NC(=O)c3ccc(Nc4ccnc5ccc([N+](=O)[O-])cc45)cc3)cc2)cc1` [Cpd. G, 1-methyl-4-(4-(4-(6-nitroquinolin-4-ylamino)benzamido)phenylamino)pyridinium chloride hydrochloride], the % DNMT1 protein level remaining at 5 µM was 95% and the % DNMT1 protein level remaining at 10 µM turned out to be 95%. Further, for the setting “HCT-116, 100 μM”, the % DNMT1 protein level remaining at 100 µM was found to be 100%.
In the case of `Cc1cc(Nc2ccc(C(=O)Nc3ccc(Nc4ccnc5ccccc45)cc3)cc2)nc(N)n1` [Cpd. GG1, 4-[(2-amino-6-methyl-4-pyrimidinyl)amino]-N-[4-(4-quinolinylamino)phenyl]benzamide dihydrochloride], the % DNMT1 protein level remaining at 5 µM came to 25% and the % DNMT1 protein level remaining at 10 µM amounted to 20%.
For `Cc1cc(Nc2ccc(C(=O)Nc3ccc(Nc4ccnc5cc(N)ccc45)cc3)cc2)nc(N)n1` [Cpd. GG2, 4-[(2-Amino-6-methyl-4-pyrimidinyl)amino]-N-{4-[(7-amino-4-quinolinyl)amino]phenyl}benzamide dihydrochloride], the % DNMT1 protein level remaining at 5 µM was 85% and the % DNMT1 protein level remaining at 10 µM is 52%.
Consider `Cc1cc(Nc2ccc(C(=O)Nc3ccc(Nc4ccnc5ccc(N)cc45)cc3)cc2)nc(N)n1` [Cpd. GG3, 4-[(2-amino-6-methyl-4-pyrimidinyl)amino]-N-{4-[(6-amino-4-quinolinyl)amino]phenyl}benzamide dihydrochloride], for which the % DNMT1 protein level remaining at 5 µM was determined as 110% and the % DNMT1 protein level remaining at 10 µM was found to be 10%.
Regarding `Cc1cc(Nc2ccc(C(=O)Nc3ccc(Nc4ccnc5ccc([N+](=O)[O-])cc45)cc3)cc2)nc(N)n1` [Cpd. GG4, 4-[(2-Amino-6-methyl-4-pyrimidinyl)amino]-N-{4-[(6-nitro-4-quinolinyl)amino]phenyl}benzamide dihydrochloride], the % DNMT1 protein level remaining at 10 µM is 90%.
For `Cc1cc(Nc2ccc(C(=O)Nc3ccc(Nc4ccnc5cc([N+](=O)[O-])ccc45)cc3)cc2)nc(N)n1` [Cpd. GG5, 4-[(2-Amino-6-methyl-4-pyrimidinyl)amino]-N-{4-[(7-nitro-4-quinolinyl)amino]phenyl}benzamide dihydrochloride], the % DNMT1 protein level remaining at 10 µM was 90%.
Turning to `Cc1cc(Nc2ccc(C(=O)Nc3ccc(Nc4ccnc5ccc(N(C)C)cc45)cc3)cc2)nc(N)n1` [Cpd. HH, 4-[(2-amino-6-methyl-4-pyrimidinyl)amino]-N-(4-{[6-(dimethylamino)-4-quinolinyl]amino}phenyl)benzamide dihydrochloride], the % DNMT1 protein level remaining at 10 µM is 90%.
Turning to `C/C(=N\N=C(N)N)c1cccc(NC(=O)c2ccc(Nc3ccnc4ccc(N(C)C)cc34)cc2)c1` [Cpd. JJ1, (E)-N-[3-(1-{(diaminomethylene)hydrazono}ethyl)phenyl]-4-[6-(dimethylamino)quinolin-4-ylamino]benzamide dihydrochloride], the % DNMT1 protein level remaining at 5 µM was 75% and the % DNMT1 protein level remaining at 10 µM was determined as 70%.
For the compound `C/C(=N\N=C(N)N)c1cccc(NC(=O)c2ccc(Nc3ccnc4ccccc34)cc2)c1` [Cpd. JJ2, (E)-N-[3-(1-{(Diaminomethylene)hydrazono}ethyl)phenyl]-4-(quinolin-4-ylamino)benzamide dihydrochloride], the % DNMT1 protein level remaining at 5 µM turned out to be 147% and the % DNMT1 protein level remaining at 10 µM was found to be 130%.
The like results for `Cc1cc(Nc2ccc(NC(=O)c3ccc(Nc4ccnc5c(F)c(F)c(F)cc45)cc3)cc2)nc(N)n1` [Cpd. KK, n-[4-(2-amino-6-methylpyrimidin-4-ylamino)phenyl]-4-(6,7,8-trifluoroquinolin-4-ylamino)benzamide dihydrochloride] were, in that order, 82% and 20%.
For the compound `C/C(=N\N=C(N)N)c1ccc(NC(=O)c2ccc(Nc3ccnc4ccc(N(C)C)cc34)cc2)cc1` [Cpd. NN, (E)-N-(4-(1-((Diaminomethylene)hydrazono)ethyl)phenyl)-4-(6-(dimethylamino)quinolin-4-ylamino)benzamide Dihydrochloride], the % DNMT1 protein level remaining at 5 µM turned out to be 70% and the % DNMT1 protein level remaining at 10 µM is 70%.
Take `C/C(=N\N=C(N)N)c1ccc(C(=O)Nc2ccc(Nc3ccnc4ccc(N(C)C)cc34)cc2)cc1` [Cpd. PP, 4-[(1E)-N-(diaminomethylene)ethanehydrazonoyl]-N-(4-{[6-(dimethylamino)-4-quinolinyl]amino}phenyl)benzamide dihydrochloride]: the % DNMT1 protein level remaining at 5 µM turned out to be 60% and the % DNMT1 protein level remaining at 10 µM turned out to be 70%.
With `C/C(=N\N=C(N)N)c1cccc(C(=O)Nc2ccc(Nc3ccnc4ccc(N(C)C)cc34)cc2)c1` [Cpd. QQ, 4-[4-({3-[(1E)-N-(diaminomethylene)ethanehydrazonoyl]-benzoyl}amino)anilino]-6-(dimethylamino)quinolinium chloride], the % DNMT1 protein level remaining at 5 µM came out at 60% and the % DNMT1 protein level remaining at 10 µM was found to be 50%.
In the case of `Nc1cc(Nc2cccc(C(=O)Nc3ccc(Nc4ccnc5ccc([N+](=O)[O-])cc45)cc3)c2)nc(N)n1` [Cpd. RR1, 3-[(2,6-diamino-4-pyrimidinyl)amino]-N-{4-[(6-nitro-4-quinolinyl)amino]phenyl}benzamide dihydrochloride], the % DNMT1 protein level remaining at 10 µM worked out at 100%.
On to `Cc1cc(Nc2cccc(C(=O)Nc3ccc(Nc4ccnc5ccc([N+](=O)[O-])cc45)cc3)c2)nc(N)n1` [RR2, 3-[(2-amino-6-methyl-4-pyrimidinyl)amino]-N-{4-[(6-nitro-4-quinolinyl)amino]phenyl}benzamide dihydrochloride], for which the % DNMT1 protein level remaining at 10 µM was 100%.
As to `Cc1cc(Nc2cccc(C(=O)Nc3ccc(Nc4ccnc5ccc(N)cc45)cc3)c2)nc(N)n1` [RR3, 3-[(2-Amino-6-methyl-4-pyrimidinyl)amino]-N-{4-[(6-amino-4-quinolinyl)amino]phenyl}benzamide dihydrochloride], the % DNMT1 protein level remaining at 10 µM was 100%.
